Assay results taken from US10681909B2, “Herbicidal triazoles” (FMC Corporation, priority 2014, dated 2020).

Assays:
[1] = system: soybean; assay: Test C postemergence; type: in vivo, Glycine max
Procedure, shortened: (§1)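 Plants are treated postemergence at the 1- to 4-leaf stage (2 to 18 cm), grown in sphagnum peat/vermiculite medium; preemergence treatment is applied to seed planted in loam soil with sand. Both use test chemical in a non-phytotoxic solvent mixture with surfactant.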

[2] = system: waterhemp; assay: Test C postemergence; type: in vivo, Amaranthus rudis
Procedure, shortened: as §1

[3] = system: blackgrass; assay: Test C postemergence; type: in vivo, Alopecurus myosuroides
Procedure, shortened: as §1

[4] = system: crabgrass, large; assay: Test C postemergence; type: in vivo, Digitaria sanguinalis
Procedure, shortened: as §1

[5] = system: chamomile; assay: Test D postemergence; type: in vivo, Matricaria inodora; conditions: scale 0 to 100
Procedure, shortened: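 Seeds were sown in silt loam and sprayed preemergence with test chemicals in a non-phytotoxic solvent mixture containing surfactant. For postemergence tests, plants grown in peat-based medium to 2 to 18 cm (1- to 4-leaf stage) were sprayed with the same formulation. Injury was rated visually against untreated controls after 14 to 21 d in a controlled growth environment.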

[6] = system: kochia; assay: Test C postemergence; type: in vivo, Kochia scoparia
Procedure, shortened: as §1

[7] = system: corn; assay: Test A preemergence; type: in vivo, Zea mays; conditions: Zea mays, pre-emergence, 240 h, 0 to 100 scale (0 no effect, 100 complete control)
Procedure, shortened: (§2)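 For preemergence, seeds were sown in a loam soil-sand blend and given a directed soil spray of test chemical in a non-phytotoxic solvent mixture with surfactant. For postemergence, plants in pots of the same blend were sprayed with the same formulation at the one- to two-leaf stage, 2 to 10 cm tall.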

[8] = system: morningglory; assay: Test C postemergence; type: in vivo, Ipomoea coccinea
Procedure, shortened: as §1

[9] = system: pigweed; assay: Test A preemergence; type: in vivo, Amaranthus retroflexus; conditions: Amaranthus retroflexus, pre-emergence, 240 h, 0 to 100 scale (0 no effect, 100 complete control), read-out: Plant response rating, Pigweed
Procedure, shortened: as §2

[10] = system: barnyardgrass; assay: Test A preemergence; type: in vivo, Echinochloa crus-galli; conditions: Echinochloa crus-galli, pre-emergence, 240 h, 0 to 100 scale (0 no effect, 100 complete control), read-out: Plant response rating, Barnyardgrass
Procedure, shortened: as §2

[11] = system: velvetleaf; assay: Test C postemergence; type: in vivo, Abutilon theophrasti
Procedure, shortened: as §1

[12] = system: foxtail, giant; assay: Test A preemergence; type: in vivo, Setaria faberii; conditions: Setaria faberi, pre-emergence, 240 h, 0 to 100 scale (0 no effect, 100 complete control), read-out: Plant response rating, Foxtail, Giant
Procedure, shortened: as §2

[13] = system: wheat; assay: Test A postemergence; type: in vivo, Triticum aestivum; conditions: Triticum aestivum, post-emergence, 240 h, 0 to 100 scale (0 no effect, 100 complete control), approx. 10 d, read-out: Plant response rating, Wheat
Procedure, shortened: as §2

[14] = system: barnyardgrass; assay: Test C postemergence; type: in vivo, Echinochloa crus-galli
Procedure, shortened: as §1

Structure (SMILES): CCc1nc(-c2ccc(C(F)(F)F)cc2)nn1Cc1ccnc(C(F)(F)F)c1 [Compound 1, 4-[[5-ethyl-3-[4-(trifluoromethyl)phenyl]-1H-1,2,4-triazol-1-yl]methyl]-2-(trifluoromethyl)pyridine]
- Plant response rating (scale of 0 to 100 where 0 is no effect and 100 is complete control) ([1]; 31 g ai/ha): 20
- Plant response rating (scale of 0 to 100 where 0 is no effect and 100 is complete control) ([1]; 62 g ai/ha): 35
- Plant response rating (scale of 0 to 100 where 0 is no effect and 100 is complete control) ([1]; 125 g ai/ha): 50
- Plant response rating (scale of 0 to 100 where 0 is no effect and 100 is complete control) ([1]; 250 g ai/ha): 50
- Plant response rating (scale of 0 to 100 where 0 is no effect and 100 is complete control) ([2]; 31 g ai/ha): 85
- Plant response rating (scale of 0 to 100 where 0 is no effect and 100 is complete control) ([2]; 62 g ai/ha): 85
- Plant response rating (scale of 0 to 100 where 0 is no effect and 100 is complete control) ([2]; 125 g ai/ha): 90
- Plant response rating (scale of 0 to 100 where 0 is no effect and 100 is complete control) ([2]; 250 g ai/ha): 90
- Plant response rating (scale of 0 to 100 where 0 is no effect and 100 is complete control) ([3]; 31 g ai/ha): 5
- Plant response rating (scale of 0 to 100 where 0 is no effect and 100 is complete control) ([3]; 62 g ai/ha): 5
- Plant response rating (scale of 0 to 100 where 0 is no effect and 100 is complete control) ([3]; 125 g ai/ha): 15
- Plant response rating (scale of 0 to 100 where 0 is no effect and 100 is complete control) ([3]; 250 g ai/ha): 35
- Plant response rating (scale of 0 to 100 where 0 is no effect and 100 is complete control) ([4]; 31 g ai/ha): 5
- Plant response rating (scale of 0 to 100 where 0 is no effect and 100 is complete control) ([4]; 62 g ai/ha): 5
- Plant response rating (scale of 0 to 100 where 0 is no effect and 100 is complete control) ([4]; 125 g ai/ha): 45
- Plant response rating (scale of 0 to 100 where 0 is no effect and 100 is complete control) ([4]; 250 g ai/ha): 45
- Plant response rating: Chamomile ([5]; 31 g ai/ha): 25
- Plant response rating: Chamomile ([5]; 62 g ai/ha): 35
- Plant response rating: Chamomile ([5]; 125 g ai/ha): 55
- Plant response rating: Chamomile ([5]; 250 g ai/ha): 65
- Plant response rating (scale of 0 to 100 where 0 is no effect and 100 is complete control) ([6]; 31 g ai/ha): 85
- Plant response rating (scale of 0 to 100 where 0 is no effect and 100 is complete control) ([6]; 62 g ai/ha): 85
- Plant response rating (scale of 0 to 100 where 0 is no effect and 100 is complete control) ([6]; 125 g ai/ha): 90
- Plant response rating (scale of 0 to 100 where 0 is no effect and 100 is complete control) ([6]; 250 g ai/ha): 90
- Corn plant response rating (crop injury, 0 = no effect, 100 = complete kill) at 125 g/ha ([7]; 125 g ai/ha): 10%
- Corn plant response rating (crop injury, 0 = no effect, 100 = complete kill) at 500 g/ha ([7]; 500 g ai/ha, approx. 10 d): 20%
- Plant response rating (scale of 0 to 100 where 0 is no effect and 100 is complete control) ([8]; 31 g ai/ha): 60
- Plant response rating (scale of 0 to 100 where 0 is no effect and 100 is complete control) ([8]; 62 g ai/ha): 70
- Plant response rating (scale of 0 to 100 where 0 is no effect and 100 is complete control) ([8]; 125 g ai/ha): 70
- Plant response rating (scale of 0 to 100 where 0 is no effect and 100 is complete control) ([8]; 250 g ai/ha): 95
- pest or weed control at 125 g/ha ([9]; 125 g ai/ha): 100%
- pest or weed control at 500 g/ha ([9]; 500 g ai/ha, approx. 10 d): 100%
- pest or weed control at 125 g/ha ([10]; 125 g ai/ha): 80%
- pest or weed control at 500 g/ha ([10]; 500 g ai/ha, approx. 10 d): 90%
- Plant response rating (scale of 0 to 100 where 0 is no effect and 100 is complete control) ([11]; 31 g ai/ha): 40
- Plant response rating (scale of 0 to 100 where 0 is no effect and 100 is complete control) ([11]; 62 g ai/ha): 55
- Plant response rating (scale of 0 to 100 where 0 is no effect and 100 is complete control) ([11]; 125 g ai/ha): 60
- Plant response rating (scale of 0 to 100 where 0 is no effect and 100 is complete control) ([11]; 250 g ai/ha): 75
- pest or weed control at 125 g/ha ([12]; 125 g ai/ha): 100%
- pest or weed control at 500 g/ha ([12]; 500 g ai/ha, approx. 10 d): 100%
- plant injury at 125 g/ha ([13]; 125 g ai/ha): 30%
- plant injury at 500 g/ha ([13]; 500 g ai/ha): 60%
- Plant response rating (scale of 0 to 100 where 0 is no effect and 100 is complete control) ([14]; 31 g ai/ha): 10
- Plant response rating (scale of 0 to 100 where 0 is no effect and 100 is complete control) ([14]; 62 g ai/ha): 15
- Plant response rating (scale of 0 to 100 where 0 is no effect and 100 is complete control) ([14]; 125 g ai/ha): 15
- Plant response rating (scale of 0 to 100 where 0 is no effect and 100 is complete control) ([14]; 250 g ai/ha): 50
